US20020055639A1, “Pyrazole derivatives as herbicides” (priority 1997, published 2002)

What was measured:
Type in all cases: in vivo
Design in all cases: key: 1=total damage; 9=no action; Ratings of from 1 to 4 (especially from 1 to 3) indicate good to very good herbicidal action
Avena [1] = assay: Pre-emergence herbicidal action (Example B1); conditions: 2000 g a.i./ha, sprayed immediately after sowing, evaluated after 3 weeks, scale of nine ratings
Description: (§1) Monocotyledonous and dicotyledonous test plants are sown in standard soil in plastics pots. Immediately after sowing, the test compounds, each in the form of an aqueous suspension or emulsion prepared from a 25% emulsifiable concentrate (Example F1, c) in WO 97/34485, pages 9 and 10), are applied by spraying at a rate of application of 2000 g of active ingredient/ha (500 liters water/ha). The test plants are then grown in a greenhouse under optimum conditions. After 3 weeks' test duration, the test is evaluated in accordance with a scale of nine ratings (1=total damage, 9=no action). Ratings of from 1 to 4 (especially from 1 to 3) indicate good to very good herbicidal action.
(§2) Test plants: Avena, Setaria, Sinapis, Stellaria

Setaria [2] = assay: Pre-emergence herbicidal action (Example B1); conditions: 2000 g a.i./ha, sprayed immediately after sowing, evaluated after 3 weeks, scale of nine ratings
Description: as §1, §2

Sinapis [3] = assay: Pre-emergence herbicidal action (Example B1); conditions: 2000 g a.i./ha, sprayed immediately after sowing, evaluated after 3 weeks, scale of nine ratings
Description: as §1, §2

Stellaria [4] = assay: Pre-emergence herbicidal action (Example B1); conditions: 2000 g a.i./ha, sprayed immediately after sowing, evaluated after 3 weeks, scale of nine ratings
Description: as §1, §2

Avena [5] = assay: Post-emergence herbicidal action (Example B2); conditions: 2000 g a.i./ha, sprayed at 4- to 6-leaf stage, evaluated after approximately 18 days, scale of nine ratings
Description: (§3) Monocotyledonous and dicotyledonous test plants are grown in a greenhouse in plastics pots containing standard soil and at the 4- to 6-leaf stage are sprayed with an aqueous suspension or emulsion of the test substances of formula I, prepared from a 25% emulsifiable concentrate (Example F1, c) in WO 97/34485, pages 9 and 10), at a rate of application corresponding to 2000 g of active ingredient/ha (500 liters water/ha). The test plants are then grown on in the greenhouse under optimum conditions. After approximately 18 days' test duration, the test is evaluated in accordance with a scale of nine ratings (1=total damage, 9=no action). Ratings of from 1 to 4 (especially from 1 to 3) indicate good to very good herbicidal action.
as §2

Setaria [6] = assay: Post-emergence herbicidal action (Example B2); conditions: 2000 g a.i./ha, sprayed at 4- to 6-leaf stage, evaluated after approximately 18 days, scale of nine ratings
Description: as §3, §2

Sinapis [7] = assay: Post-emergence herbicidal action (Example B2); conditions: 2000 g a.i./ha, sprayed at 4- to 6-leaf stage, evaluated after approximately 18 days, scale of nine ratings
Description: as §3, §2

Stellaria [8] = assay: Post-emergence herbicidal action (Example B2); conditions: 2000 g a.i./ha, sprayed at 4- to 6-leaf stage, evaluated after approximately 18 days, scale of nine ratings
Description: as §3, §2

Row | SMILES | Pre-emergence action: Avena (rating) (Avena [1]) | Pre-emergence action: Setaria (rating) (Setaria [2]) | Pre-emergence action: Sinapis (rating) (Sinapis [3]) | Pre-emergence action: Stellaria (rating) (Stellaria [4]) | Post-emergence action: Avena (rating) (Avena [5]) | Post-emergence action: Setaria (rating) (Setaria [6]) | Post-emergence action: Sinapis (rating) (Sinapis [7]) | Post-emergence action: Stellaria (rating) (Stellaria [8])
1 | CCS(=O)(=O)CCn1c(-c2nn(C)c(OC(F)F)c2Cl)c(F)cc(Cl)c1=O [Example 1.168] | 1 | 1 | 1 | 1 | 1 | 1 | 1 | 1
2 | CCC(=O)Cn1c(-c2nn(C)c(OC(F)F)c2Cl)c(F)cc(Cl)c1=O [Example 1.302] | 1 | 1 | 1 | 1 | 1 | 1 | 1 | 1
3 | Cn1nc(-c2c(F)cc(Cl)c(=O)n2C)c(Cl)c1OC(F)F [Example 1.002] | 1 | 1 | 1 | 1 | 1 | 1 | 1 | 1
4 | CCn1c(-c2nn(C)c(OC(F)F)c2Cl)c(F)cc(Cl)c1=O [Example 1.004] | 1 | 1 | 1 | 1 | 1 | 2 | 1 | 1
5 | C#CCn1c(-c2nn(C)c(OC(F)F)c2Cl)c(F)cc(Cl)c1=O [Example 1.100] | 1 | 1 | 1 | 1 | 1 | 1 | 1 | 1
6 | CCSCCn1c(-c2nn(C)c(OC(F)F)c2Cl)c(F)cc(Cl)c1=O [Example 1.156] | 1 | 1 | 1 | 1 | 1 | 1 | 1 | 1
7 | Cn1nc(-c2c(F)cc(Cl)c(=O)n2CCc2ccccc2)c(Cl)c1OC(F)F [Example 1.105] | 1 | 1 | 1 | 1 | 1 | 2 | 1 | 1
8 | Cn1nc(-c2c(F)cc(Cl)c(=O)n2CCCc2ccccc2)c(Cl)c1OC(F)F [Example 1.106] | 2 | 1 | 1 | 1 | 3 | 3 | 1 | 1
9 | CCOC(=O)CCCn1c(-c2nn(C)c(OC(F)F)c2Cl)c(F)cc(Cl)c1=O [Example 1.205] | 1 | 1 | 1 | 1 | 1 | 1 | 1 | 1
10 | C=CCn1c(-c2nn(C)c(OC(F)F)c2Cl)c(F)cc(Cl)c1=O [Example 1.080] | 1 | 1 | 1 | 1 | 1 | 1 | 1 | 1
11 | COn1c(-c2nn(C)c(OC(F)F)c2Cl)c(F)cc(Cl)c1=O [Example 1.400] | 1 | 1 | 1 | 1 | 1 | 2 | 1 | 1
12 | Cn1nc(-c2c(Cl)cc(Cl)c(=O)n2CS(C)(=O)=O)c(Cl)c1OC(F)F [Example 1.152] | 1 | 1 | 1 | 1 | 1 | 1 | 1 | 1
13 | C#CCn1c(-c2nn(C)c(C(F)(F)F)c2Cl)c(F)cc(Cl)c1=O [Example 9.100] | 1 | 1 | 1 | 1 | 2 | 2 | 1 | 1
14 | Cn1nc(-c2c(F)cc(Cl)c(=O)n2CS(C)(=O)=O)c(Cl)c1OC(F)F [Example 1.153] | 1 | 1 | 1 | 1 | 1 | 1 | 1 | 1
15 | C#CCn1c(-c2nn(C)c(C(F)(F)F)c2Br)c(F)cc(Cl)c1=O [Example 10.100] | 1 | 1 | 1 | 1 | 1 | 2 | 1 | 1
16 | Cn1nc(-c2c(F)cc(Cl)c(=O)n2C[S+](C)[O-])c(Cl)c1OC(F)F (centres unmarked) [Example 1.150] | 1 | 1 | 1 | 1 | 1 | 1 | 1 | 1
17 | Cn1nc(-c2c(F)cc(Cl)c(=O)n2C)c(Cl)c1C(F)(F)F [Example 9.002] | 1 | 3 | 1 | 1 | 1 | 3 | 1 | 1
18 | Cn1nc(-c2c(F)cc(Cl)c(=O)n2CC#N)c(Cl)c1OC(F)F [Example 1.126] | 1 | 1 | 1 | 1 | 1 | 1 | 1 | 1
19 | C#CCn1c(-c2nn(C)c(S(C)(=O)=O)c2C)c(F)cc(Cl)c1=O [Example 28.100] | 1 | 1 | 1 | 1 | 1 | 1 | 1 | 1
